Measured values reported in ChEMBL document CHEMBL4840381, “BRD9 Bifunctional Degraders for Treating Cancer” (ACS Med Chem Lett, 2021).

Each compound was assayed against Protein cereblon/Bromodomain-containing protein 9 (Homo sapiens, UniProt Q9H8M2+Q96SW2) (assay: Induction of CRBN-mediated GFP-fused BRD9 (unknown origin) degradation expressed in HEK293-A cells incubated for 24 hrs by flow cytometric analysis).
Type: cell-based

Chain of Protein cereblon/Bromodomain-containing protein 9 (Q9H8M2 whole entry, the tested form may be a part): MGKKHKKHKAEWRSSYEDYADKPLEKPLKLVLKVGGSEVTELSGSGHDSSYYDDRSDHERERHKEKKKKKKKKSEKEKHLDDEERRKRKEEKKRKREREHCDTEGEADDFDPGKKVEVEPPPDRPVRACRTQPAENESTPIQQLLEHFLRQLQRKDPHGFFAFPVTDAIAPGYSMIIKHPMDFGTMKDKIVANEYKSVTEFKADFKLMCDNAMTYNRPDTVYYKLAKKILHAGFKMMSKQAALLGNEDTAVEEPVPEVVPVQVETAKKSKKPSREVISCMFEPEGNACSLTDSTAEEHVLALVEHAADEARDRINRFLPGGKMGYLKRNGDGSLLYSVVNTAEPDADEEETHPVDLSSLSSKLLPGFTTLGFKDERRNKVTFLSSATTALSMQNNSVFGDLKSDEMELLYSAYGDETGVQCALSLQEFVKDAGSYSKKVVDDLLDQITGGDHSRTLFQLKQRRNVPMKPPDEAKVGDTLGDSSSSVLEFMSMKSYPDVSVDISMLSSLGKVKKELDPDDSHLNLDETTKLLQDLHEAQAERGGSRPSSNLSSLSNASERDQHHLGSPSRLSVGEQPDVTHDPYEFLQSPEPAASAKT
Chain of Protein cereblon/Bromodomain-containing protein 9 (Q96SW2 whole entry, the tested form may be a part): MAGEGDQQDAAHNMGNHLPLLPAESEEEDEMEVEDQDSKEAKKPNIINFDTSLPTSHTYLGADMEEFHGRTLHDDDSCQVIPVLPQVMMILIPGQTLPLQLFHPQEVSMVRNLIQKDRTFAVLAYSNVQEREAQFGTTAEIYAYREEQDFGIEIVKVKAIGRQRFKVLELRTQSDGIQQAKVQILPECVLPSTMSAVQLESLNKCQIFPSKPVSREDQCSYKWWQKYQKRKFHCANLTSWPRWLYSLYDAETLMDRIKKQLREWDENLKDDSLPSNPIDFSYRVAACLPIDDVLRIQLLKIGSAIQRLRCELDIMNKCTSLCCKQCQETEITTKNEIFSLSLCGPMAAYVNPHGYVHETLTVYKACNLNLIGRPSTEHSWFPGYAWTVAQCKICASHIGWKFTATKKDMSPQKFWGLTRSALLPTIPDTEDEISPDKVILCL

Row | SMILES | DC50 [nM]
1 | CCCCn1cc(-c2ccc(O[C@H]3CCN(CC4CCN(C(=O)c5ccc(OC)c(N6CCC(=O)NC6=O)c5)CC4)C[C@@H]3F)c(OC)c2)c2ccncc2c1=O | 1
2 | CCCCn1cc(-c2cc(F)c(O[C@H]3CCN(CC4CCN(C(=O)c5ccc(OC)c(N6CCC(=O)NC6=O)c5)CC4)C[C@@H]3F)c(F)c2)c2ccncc2c1=O | 1
3 | COc1cc(-c2cn(C)c(=O)c3cnccc23)cc(OC)c1CCN1CCC(OC2CCN(C(=O)c3ccc(Cl)c(N4CCC(=O)NC4=O)c3)CC2)CC1 | 1
4 | CCCCn1cc(-c2ccc(OC3CCN(CC4CCN(C(=O)c5ccc(Cl)c(N6CCC(=O)NC6=O)c5)CC4)CC3)c(OC)c2)c2ccncc2c1=O | 1

More lines, in order of falling DC50, values ahead:

Row | DC50 [nM] | SMILES
5 | 1 | CCCCn1cc(-c2cc(OC)c(OC3CCN(CC4CCN(C(=O)c5ccc(Cl)c(N6CCC(=O)NC6=O)c5)CC4)CC3)c(OC)c2)c2ccncc2c1=O
6 | 1 | COc1cc(-c2cn(C)c(=O)c(C)c2C)cc(OC)c1CCN1CCC(OC2CCN(C(=O)c3ccc(Cl)c(N4CCC(=O)NC4=O)c3)CC2)CC1
